Source: patent US10723741B1, “DNA polymerase IIIC inhibitors and use thereof” (Acurx Pharmaceuticals, LLC, priority 2018, dated 2020)
In brackets after ≈: the same amount, converted by molar mass. Where a name gives a salt, the structure may show the parent alone. Read-outs that look alike come from different tables or passages of the source.

Assays:
Type in all cases: cell-based
[1] = tested on: Enterococcus faecalis ATCC 29212; assay: Broth microdilution MIC, E. faecalis ATCC 29212; conditions: read-out: MIC E. faecalis ATCC 29212
Outline: (§1)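 Broth microdilution in strain-specific test medium with ~5.0×10^5 cfu/ml inoculum, 1% DMSO and two-fold compound dilutions from 64 to 0.0625 μg/ml. Plates were held 20 hours at 37° C in ambient air. S. pneumoniae colonies were grown beforehand on blood agar in 5% CO2.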

[2] = tested on: Escherichia coli ATCC 25922; assay: Broth microdilution MIC, E. coli ATCC 25922 (MHIIB w & w/o 4 mM EDTA); conditions: for MIC: Escherichia coli, read-out: MIC E. coli ATCC 25922; for MIC E. coli ATCC 25922 + 4 mM EDTA: with 4 mM EDTA
Outline: as §1

[3] = tested on: Streptococcus pneumoniae ATCC 49619; assay: Broth microdilution MIC, S. pneumoniae ATCC 49619; conditions: read-out: MIC S. pneumoniae ATCC 49619
Outline: as §1

[4] = tested on: Staphylococcus aureus NRS384 (MRSA); assay: Broth microdilution MIC, S. aureus NRS384 (MRSA); design: MIC NRS 384 (MRSA): unit not given here; conditions: broth microdilution, 37° C., 20 hours; for MIC: Staphylococcus aureus
Outline: as §1

[5] = tested on: Enterococcus faecium ATCC 700221 (VRE); assay: Broth microdilution MIC, E. faecium ATCC 700221 (VRE); design: MIC E. faecium ATCC 700221 (VRE): unit: ug/mL; conditions: broth microdilution, 37° C., 20 hours; for MIC: Enterococcus faecium
Outline: as §1

[6] = tested on: Bacillus subtilis ATCC 6633; assay: Broth microdilution MIC, B. subtilis ATCC 6633; conditions: read-out: MIC B. subtilis ATCC 6633
Outline: as §1

[7] = tested on: Staphylococcus aureus ATCC 29213 (MSSA); assay: Broth microdilution MIC, S. aureus ATCC 29213 (MSSA); conditions: read-out: MIC S. aureus ATCC 29213 (MSSA)
Outline: as §1

[8] = ATCC29212, broth microdilution, 37° C., 20 hours
[9] = ATCC25922, without EDTA, broth microdilution, 37° C., 20 hours
[10] = broth microdilution, 37° C., 20 hours
[11] = ATCC49619, broth microdilution, 37° C., 20 hours
[12] = read-out: MIC E. faecium ATCC 700221 (VRE)
[13] = ATCC6633, broth microdilution, 37° C., 20 hours

Row | SMILES | MIC [1, 8] [µg/mL] | MIC [2, 9] [µg/mL] | MIC E. coli ATCC 25922 + 4 mM EDTA [2, 10] [µg/mL] | MIC [3, 11] [µg/mL] | MIC ([4]; S. aureus NRS 384, read-out: MIC NRS 384 (MRSA)) [µg/mL] | MIC [5, 12] [µg/mL] | MIC [6, 13] [µg/mL] | MIC [7, 10] [µg/mL] | MIC ([4]; read-out: MIC NRS 384 (MRSA)) [µg/mL] | MIC ([4]; MHIIB, read-out: MIC against S. aureus NRS 384 (MRSA)) [µg/mL] | MIC ([5]; MHIIB, read-out: MIC against E. faecium ATCC 700221 (VRE)) [µg/mL] | MIC ([1]; ATCC29212, 20 h) [µg/mL] | MIC ([2]; ATCC25922, 20 h) [µg/mL] | MIC ([3]; ATCC49619, 20 h) [µg/mL] | MIC NRS 384 (MRSA) [4] | MIC E. faecium ATCC 700221 (VRE) [5] | MIC ([6]; ATCC6633, 20 h) [µg/mL] | MIC ([7]; 20 h) [µg/mL]
1 | O=c1[nH]c(NCc2ccc(Cl)c(Cl)c2)nc2cnn(CCOCCOP(=O)(O)O)c12 [Compound 296, 2-(2-(5-((3,4-dichlorobenzyl)amino)-7-oxo-6,7-dihydro-1H-pyrazolo[4,3-d]pyrimidin-1-yl)ethoxy)ethyl dihydrogen phosphate] | > 64 | > 64 | >64 | 8 | > 64 | 64 | 32 | > 64 | – | – | – | – | – | – | – | – | – | –
2 | Cn1ncc2nc(NCc3ccccn3)[nH]c(=O)c21 [Compound 4, 1-Methyl-5-((pyridin-2-ylmethyl)amino)-1H-pyrazolo[4,3-d]pyrimidin-7(6H)-one] | > 64 | > 64 | >64 | > 64 | – | > 64 | > 64 | > 64 | > 64 | – | – | – | – | – | – | – | – | –
3 | O=c1[nH]c(NCc2ccc(Cl)c(Cl)c2)nc2cnn(Cc3coc(CO)n3)c12 [Compound 171, 5-((3,4-dichlorobenzyl)amino)-1-((2-(hydroxymethyl)oxazol-4-yl)methyl)-1H-pyrazolo[4,3-d]pyrimidin-7(6H)-one] | 16 (≈ 38 µM) | > 64 | >64 | 8 (≈ 19 µM) | – | 8 (≈ 19 µM) | 4 (≈ 9.5 µM) | 32 (≈ 76 µM) | 16 (≈ 38 µM) | – | – | – | – | – | – | – | – | –
4 | O=C(NCCn1ncc2nc(NCc3ccc(Cl)c(Cl)c3)[nH]c(=O)c21)c1cc(O)nnc1Cl [Compound 84, 3-chloro-N-(2-(5-((3,4-dichlorobenzyl)amino)-7-oxo-6,7-dihydro-1H-pyrazolo[4,3-d]pyrimidin-1-yl)ethyl)-6-hydroxypyridazine-4-carboxamide] | 64 (≈ 126 µM) | > 64 | >64 | 16 (≈ 31.4 µM) | – | 32 (≈ 62.8 µM) | 64 (≈ 126 µM) | 64 (≈ 126 µM) | 64 (≈ 126 µM) | – | – | – | – | – | – | – | – | –
5 | Cc1ccncc1C(=O)N1CCC(n2ncc3nc(NCc4ccc(Cl)c(Cl)c4)[nH]c(=O)c32)CC1.Cl [Compound 267, 5-((3,4-Dichlorobenzyl)amino)-1-(1-(4-methylnicotinoyl)piperidin-4-yl)-1H-pyrazolo[4,3-d]pyrimidin-7(6H)-one hydrochloride] | 4 | > 64 | >64 | 4 | – | 2 | 1 | 4 | 4 | – | – | – | – | – | – | – | – | –
6 | Cn1nc(F)c2nc(NCc3ccc(Cl)c(Cl)c3)[nH]c(=O)c21 [Compound 53, 5-((3,4-dichlorobenzyl)amino)-3-fluoro-1-methyl-1H-pyrazolo[4,3-d]pyrimidin-7(6H)-one] | 2 (≈ 5.85 µM) | > 64 | 64 | 2 (≈ 5.85 µM) | – | 0.5 (≈ 1.46 µM) | 0.5 (≈ 1.46 µM) | 0.5 (≈ 1.46 µM) | 0.5 (≈ 1.46 µM) | ≤ 1 | ≤ 1 | – | – | – | – | – | – | –
7 | O=c1[nH]c(NCc2ccc(Cl)c(Cl)c2)nc2cnn(CC3CCCN3c3ccccn3)c12 (stereo not shown) [Compound 182, 5-((3,4-dichlorobenzyl)amino)-1-((1-(pyridin-2-yl)pyrrolidin-2-yl)methyl)-1H-pyrazolo[4,3-d]pyrimidin-7(6H)-one dihydrochloride] | – | – | >64 | – | – | – | – | – | – | – | – | 8 | > 64 | 8 | 4/8 | 4/2 | 2 | 4
8 | N#Cc1nn(CCOCCO)c2c(=O)[nH]c(NCc3ccc(Cl)c(Cl)c3)nc12 [Compound 51, 5-((3,4-dichlorobenzyl)amino)-1-(2-(2-hydroxyethoxy)ethyl)-7-oxo-6,7-dihydro-1H-pyrazolo[4,3-d]pyrimidine-3-carbonitrile] | 2 (≈ 4.73 µM) | > 64 | >64 | 2 (≈ 4.73 µM) | – | 0.5 (≈ 1.18 µM) | 1 (≈ 2.36 µM) | 2 (≈ 4.73 µM) | 2 (≈ 4.73 µM) | – | – | – | – | – | – | – | – | –
9 | CNC(=N)NCCn1ncc2nc(NCc3ccc(Cl)c(Cl)c3)[nH]c(=O)c21.Cl [Compound 294, 1-(2-(5-((3,4-Dichlorobenzyl)amino)-7-oxo-6,7-dihydro-1H-pyrazolo[4,3-d]pyrimidin-1-yl)ethyl)-3-methylguanidine hydrochloride] | 64 | > 64 | 64 | 32 | – | 64 | 16 | 32 | 32 | – | – | – | – | – | – | – | – | –
10 | Cn1ncc2nc(NCc3ccc(Cl)c(F)c3)[nH]c(=O)c21 [Compound 1, 5-((4-chloro-3-fluorobenzyl)amino)-1-methyl-1H-pyrazolo[4,3-d]pyrimidin-7(6H)-one] | 16 (≈ 52 µM) | > 64 | 32 | 4 (≈ 13 µM) | – | 8 (≈ 26 µM) | 4 (≈ 13 µM) | 8 (≈ 26 µM) | 8 (≈ 26 µM) | – | – | – | – | – | – | – | – | –
11 | CN(CCn1ncc2nc(NCc3ccc(Cl)c(Cl)c3)[nH]c(=O)c21)C(=O)c1cnoc1 [Compound 82, N-(2-(5-((3,4-dichlorobenzyl)amino)-7-oxo-6,7-dihydro-1H-pyrazolo[4,3-d]pyrimidin-1-yl)ethyl)-N-methylisoxazole-4-carboxamide] | 8 (≈ 17.3 µM) | > 64 | >64 | 8 (≈ 17.3 µM) | – | 4 (≈ 8.65 µM) | 8 (≈ 17.3 µM) | 16 (≈ 34.6 µM) | 16 (≈ 34.6 µM) | – | – | – | – | – | – | – | – | –
12 | Cl.O=c1[nH]c(NCc2ccc(Cl)c(Cl)c2)nc2cnn(CCc3ccccn3)c12 [Compound 111, 5-((3,4-Dichlorobenzyl)amino)-1-(2-(pyridin-2-yl)ethyl)-1H-pyrazolo[4,3-d]pyrimidin-7(6H)-one hydrochloride] | 8 | > 64 | >64 | 4 | – | – | 1 | 4 | – | – | – | – | – | – | 2/2 | 2/2 | – | –
13 | O=C(CO)Cn1ncc2nc(NCc3ccc(Cl)c(Cl)c3)[nH]c(=O)c21 [Compound 290, 5-((3,4-dichlorobenzyl)amino)-1-(3-hydroxy-2-oxopropyl)-1H-pyrazolo[4,3-d]pyrimidin-7(6H)-one] | 16 (≈ 41.9 µM) | > 64 | >64 | 16 (≈ 41.9 µM) | – | 8 (≈ 20.9 µM) | 8 (≈ 20.9 µM) | 32 (≈ 83.7 µM) | 16 (≈ 41.9 µM) | – | – | – | – | – | – | – | – | –
